Measured values taken from the supplement of paper PMC11061612.

Assays:
[1] = system: CAPAN-2 (Pancreatic Carcinoma); assay: Bliss excess, mean over the matrix (fraction); higher = more synergy
Outline: (§1)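 After 24 hours at 37°C and 5% CO2 in 1536-well plates, cells in DMEM/F12 or RPMI plus 10% FBS received two-drug dose matrices for 72 hours. Viability came from CellTiter-Glo 2.0 luminescence and was scaled as inhibition, anchored at 0 by vehicle wells and at 1 by blank wells. Combination Emax is taken as the second-highest inhibition in the matrix, and Bliss excess as the observed combination effect less EA + EB − EA·EB, with EA and EB the single-agent effects.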

[2] = system: CCK-81 (Colorectal Carcinoma); assay: as above
Outline: as §1

[3] = system: COLO-320-HSR (Colorectal Carcinoma); assay: as above
Outline: as §1

[4] = system: ECC10 (Gastric Carcinoma); assay: as above
Outline: as §1

[5] = system: FU97 (Gastric Carcinoma); assay: as above
Outline: as §1

[6] = system: IGR-37 (Melanoma); assay: as above
Outline: as §1

[7] = system: KARPAS-422 (B-Cell Non-Hodgkin's Lymphoma); assay: as above
Outline: as §1

[8] = system: NCI-H1581 (Non-Small Cell Lung Carcinoma); assay: as above
Outline: as §1

[9] = system: NCI-H1666 (Lung Adenocarcinoma); assay: as above
Outline: as §1

[10] = system: NCI-H2066 (Squamous Cell Lung Carcinoma); assay: as above
Outline: as §1

[11] = system: NCI-H64 (Small Cell Lung Carcinoma); assay: as above
Outline: as §1

[12] = system: NY (Osteosarcoma); assay: as above
Outline: as §1

[13] = system: ONS-76 (Other Solid Carcinomas); assay: as above
Outline: as §1

[14] = system: PANC-10-05 (Pancreatic Carcinoma); assay: as above
Outline: as §1

[15] = system: TT (Thyroid Gland Carcinoma); assay: as above
Outline: as §1

[16] = system: U-2-OS (Osteosarcoma); assay: as above
Outline: as §1

[17] = system: VCaP (Prostate Carcinoma); assay: as above
Outline: as §1

[18] = system: CAPAN-2 (Pancreatic Carcinoma); assay: combination Emax (second highest fraction inhibited in the dose matrix, 72 h); higher = more inhibition; extreme values may be limits of the assay
Outline: as §1

[19] = system: CCK-81 (Colorectal Carcinoma); assay: as above
Outline: as §1

[20] = system: COLO-320-HSR (Colorectal Carcinoma); assay: as above
Outline: as §1

[21] = system: ECC10 (Gastric Carcinoma); assay: as above
Outline: as §1

[22] = system: FU97 (Gastric Carcinoma); assay: as above
Outline: as §1

[23] = system: IGR-37 (Melanoma); assay: as above
Outline: as §1

[24] = system: KARPAS-422 (B-Cell Non-Hodgkin's Lymphoma); assay: as above
Outline: as §1

[25] = system: NCI-H1581 (Non-Small Cell Lung Carcinoma); assay: as above
Outline: as §1

[26] = system: NCI-H1666 (Lung Adenocarcinoma); assay: as above
Outline: as §1

[27] = system: NCI-H2066 (Squamous Cell Lung Carcinoma); assay: as above
Outline: as §1

[28] = system: NCI-H64 (Small Cell Lung Carcinoma); assay: as above
Outline: as §1

[29] = system: NY (Osteosarcoma); assay: as above
Outline: as §1

[30] = system: ONS-76 (Other Solid Carcinomas); assay: as above
Outline: as §1

[31] = system: PANC-10-05 (Pancreatic Carcinoma); assay: as above
Outline: as §1

[32] = system: TT (Thyroid Gland Carcinoma); assay: as above
Outline: as §1

[33] = system: U-2-OS (Osteosarcoma); assay: as above
Outline: as §1

[34] = system: VCaP (Prostate Carcinoma); assay: as above
Outline: as §1

[35] = system: BICR22 (Oral Cavity Carcinoma); assay: Bliss excess, mean over the matrix (fraction); higher = more synergy
Outline: as §1

[36] = system: BICR22 (Oral Cavity Carcinoma); assay: combination Emax (second highest fraction inhibited in the dose matrix, 72 h); higher = more inhibition; extreme values may be limits of the assay
Outline: as §1

[37] = system: U-698-M; assay: Bliss excess, mean over the matrix (fraction); higher = more synergy; conditions: first compound max 1 µM, U-[…], B-Cell Non-Hodgkin's Lymphoma, 7x7
Outline: as §1

[38] = system: U-698-M; assay: combination Emax (second highest fraction inhibited in the dose matrix, 72 h); higher = more inhibition; conditions: first compound max 1 µM, B-Cell Non-Hodgkin's Lymphoma, 7x7
Outline: as §1
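For Bliss excess, mean over the matrix in this document: after 72 h of two-drug dosing.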

Row | SMILES | Bliss excess [1] | Bliss excess [2] | Bliss excess [3] | Bliss excess [4] | Bliss excess [5] | Bliss excess [6] | Bliss excess [7] | Bliss excess [8] | Bliss excess [9] | Bliss excess [10] | Bliss excess [11] | Bliss excess [12] | Bliss excess [13] | Bliss excess [14] | Bliss excess [15] | Bliss excess [16] | Bliss excess [17] | combination Emax [18] | combination Emax [19] | combination Emax [20] | combination Emax [21] | combination Emax [22] | combination Emax [23] | combination Emax [24] | combination Emax [25] | combination Emax [26] | combination Emax [27] | combination Emax [28] | combination Emax [29] | combination Emax [30] | combination Emax [31] | combination Emax [32] | combination Emax [33] | combination Emax [34] | Bliss excess [35] | combination Emax [36] | Bliss excess ([37]; partner max 10 µM) | combination Emax ([38]; partner max 10 µM) | Bliss excess ([37]; partner max 3 µM) | combination Emax ([38]; partner max 3 µM)
1 | C=CCn1c(=O)c2cnc(Nc3ccc(N4CCN(C)CC4)cc3)nc2n1-c1cccc(C(C)(C)O)n1 [AZD1775] + CCc1c2c(nc3ccc(O)cc13)-c1cc3c(c(=O)n1C2)COC(=O)[C@]3(O)CC [SN-38] (first compound max 1 µM, partner max 0.3 µM) | -0.0501 | -0.0839 | -0.0294 | -0.0663 | -0.0007 | -0.107 | -0.0699 | 0.0811 | -0.0452 | -0.0821 | -0.017 | -0.0575 | -0.0392 | -0.029 | -0.0838 | -0.0179 | -0.108 | 0.415 | 0.845 | 0.756 | 0.995 | 0.391 | 0.823 | 0.953 | 0.965 | 0.539 | 0.304 | 0.887 | 0.902 | 0.835 | 0.851 | 0.941 | 0.588 | 0.67 |  |  |  |  |  | 
2 | C=CCn1c(=O)c2cnc(Nc3ccc(N4CCN(C)CC4)cc3)nc2n1-c1cccc(C(C)(C)O)n1 [AZD1775] + Nc1ccn([C@@H]2O[C@H](CO)[C@@H](O)C2(F)F)c(=O)n1 [Gemcitabine] (first compound max 1 µM, partner max 0.3 µM) | -0.065 | -0.0665 | 0.0066 | 0.0012 | -0.0313 | -0.0346 | -0.0482 | 0.124 | -0.0561 | -0.0678 | -0.0098 | -0.0595 | -0.0804 | -0.0504 | -0.0228 | 0.029 | -0.0094 | 0.43 | 0.81 | 0.811 | 0.821 | 0.362 | 0.674 | 0.847 | 0.948 | 0.46 | 0.217 | 0.905 | 0.7 | 0.559 | 0.631 | 0.486 | 0.724 | 0.839 | -0.0077 | 0.943 |  |  |  | 
3 | CN(CCO)CC[C@H](CSc1ccccc1)Nc1ccc(S(=O)(=O)NC(=O)c2ccc(N3CCC([C@@H](O)c4ccccc4-c4ccc(Cl)cc4)CC3)cc2)cc1S(=O)(=O)C(F)(F)F [AZD4320] + CS(=O)(=O)CCNCc1ccc(-c2ccc3ncnc(Nc4ccc(OCc5cccc(F)c5)c(Cl)c4)c3c2)o1 [Lapatinib] (first compound max 1 µM, 7x7, partner max 10 µM) | 0.0523 | 0.0767 | -0.0638 | 0.0318 | -0.0253 | -0.0519 | 0.0596 | -0.0047 | 0.0943 | -0.0109 | 0.0352 | 0.0035 | 0.0068 | -0.021 | 0.012 | 0.0382 | 0.0003 | 0.947 | 1 | 0.261 | 1 |  | 0.282 | 0.985 | 0.398 |  | 0.917 | 0.995 | 0.564 | 0.839 | 0.72 | 0.363 | 0.571 | 0.434 | 0.0806 | 0.958 |  |  |  | 
4 | C[C@@H]1COCCN1c1cc(C2([S@](C)(=N)=O)CC2)nc(-c2ccnc3[nH]ccc23)n1 [AZD6738] + Nc1ccn([C@@H]2O[C@H](CO)[C@@H](O)C2(F)F)c(=O)n1 [Gemcitabine] (first compound max 10 µM, 7x7, partner max 0.3 µM) | 0.018 | 0.0606 | 0.0818 |  | 0.0306 | -0.0837 | -0.0523 | 0.128 | -0.0247 | -0.0525 | 0.0857 | 0.0071 | -0.0644 | 0.0682 | 0.0446 | 0.107 | 0.0509 | 0.313 | 0.888 | 0.852 | 0.866 | 0.398 | 0.794 | 0.749 | 0.975 | 0.553 | 0.368 | 0.936 | 0.777 | 0.817 | 0.631 | 0.526 | 0.83 | 0.837 | -0.007 | 0.958 |  |  |  | 
5 | N#Cc1cnc(Nc2cc(NC[C@H]3CNCCO3)c(C(F)(F)F)cn2)cn1 [SRA737] + CCc1c2c(nc3ccc(O)cc13)-c1cc3c(c(=O)n1C2)COC(=O)[C@]3(O)CC [SN-38] (first compound max 10 µM, 7x7, partner max 0.3 µM) | -0.0041 | -0.067 | 0.112 | -0.0016 | -0.0739 | -0.111 | 0.0019 | 0.135 | -0.0679 | -0.0192 | -0.0347 | -0.0729 | -0.0554 | -0.006 | -0.0712 | -0.0473 | -0.0295 | 0.25 | 0.78 | 0.657 | 0.973 | 0.408 | 0.818 | 0.91 | 0.86 |  | 0.345 | 0.818 | 0.928 | 0.876 | 0.86 | 0.883 | 0.61 | 0.59 | -0.0185 | 0.893 |  |  |  | 
6 | CC1(C)CCC(CN2CCN(c3ccc(C(=O)NS(=O)(=O)c4ccc(NCC5CCOCC5)c([N+](=O)[O-])c4)c(Oc4cnc5[nH]ccc5c4)c3)CC2)=C(c2ccc(Cl)cc2)C1 [Venetoclax] + CS(=O)(=O)CCNCc1ccc(-c2ccc3ncnc(Nc4ccc(OCc5cccc(F)c5)c(Cl)c4)c3c2)o1 [Lapatinib] |  |  |  |  |  |  |  |  |  |  |  |  |  |  |  |  |  |  |  |  |  |  |  |  |  |  |  |  |  |  |  |  |  |  |  |  | -0.0151 | 0.503 |  | 
7 | CC1(C)CCC(CN2CCN(c3ccc(C(=O)NS(=O)(=O)c4ccc(NCC5CCOCC5)c([N+](=O)[O-])c4)c(Oc4cnc5[nH]ccc5c4)c3)CC2)=C(c2ccc(Cl)cc2)C1 [Venetoclax] + C[C@@H]1COCCN1C2=NC(=NC(=C2)C3(CC3)[S@](=N)(=O)C)C4=C5C=CNC5=NC=C4 [AZD6738] |  |  |  |  |  |  |  |  |  |  |  |  |  |  |  |  |  |  |  |  |  |  |  |  |  |  |  |  |  |  |  |  |  |  |  |  | -0.0392 | 0.86 |  | 
8 | CC1(C)CCC(CN2CCN(c3ccc(C(=O)NS(=O)(=O)c4ccc(NCC5CCOCC5)c([N+](=O)[O-])c4)c(Oc4cnc5[nH]ccc5c4)c3)CC2)=C(c2ccc(Cl)cc2)C1 [Venetoclax] + C[C@@H](Nc1cc(F)cc(F)c1)c1cc(C(=O)N(C)C)cc2c(=O)cc(N3CCOCC3)oc12 [AZD8186] |  |  |  |  |  |  |  |  |  |  |  |  |  |  |  |  |  |  |  |  |  |  |  |  |  |  |  |  |  |  |  |  |  |  |  |  |  |  | -0.0045 | 0.564
9 | CC1(C)CCC(CN2CCN(c3ccc(C(=O)NS(=O)(=O)c4ccc(NCC5CCOCC5)c([N+](=O)[O-])c4)c(Oc4cnc5[nH]ccc5c4)c3)CC2)=C(c2ccc(Cl)cc2)C1 [Venetoclax] + Cc1cc2ncnn2cc1Nc1ncc2c(n1)n(C1CCOCC1)c(=O)n2C [AZD7648] |  |  |  |  |  |  |  |  |  |  |  |  |  |  |  |  |  |  |  |  |  |  |  |  |  |  |  |  |  |  |  |  |  |  |  |  | 0.041 | 0.57 |  | 
10 | CC1(C)CCC(CN2CCN(c3ccc(C(=O)NS(=O)(=O)c4ccc(NCC5CCOCC5)c([N+](=O)[O-])c4)c(Oc4cnc5[nH]ccc5c4)c3)CC2)=C(c2ccc(Cl)cc2)C1 [Venetoclax] + Cn1cnc2c(F)c(Nc3ccc(Br)cc3Cl)c(C(=O)NOCCO)cc21 [Selumetinib] |  |  |  |  |  |  |  |  |  |  |  |  |  |  |  |  |  |  |  |  |  |  |  |  |  |  |  |  |  |  |  |  |  |  |  |  |  |  | -0.0473 | 0.408
